Reference: PubChem BioAssay (NCI)
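Grown in 96-well plates, cells were treated for 48 hours with each compound at five concentrations. Insufficient inhibition: endpoint recorded as highest concentration tested. Abbreviation: GI50, concentration required for 50% inhibition of growth. TGI: concentration producing complete growth inhibition.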

Assays:
Assay in all cases: growth of human tumour cells (NCI), 48 h
A498 renal = tested on: A498 renal
A549 NSCLC = tested on: A549 NSCLC
CAKI-1 renal = tested on: CAKI-1 renal
HCT-15 colon = tested on: HCT-15 colon
HOP-92 NSCLC = tested on: HOP-92 NSCLC
KM12 colon = tested on: KM12 colon
MALME-3M melanoma = tested on: MALME-3M melanoma
OVCAR-5 ovarian = tested on: OVCAR-5 ovarian
SF-539 CNS = tested on: SF-539 CNS
SK-MEL-2 melanoma = tested on: SK-MEL-2 melanoma

Structure (SMILES)	GI50 (A498 renal) [µM]	TGI (A498 renal) [µM]	GI50 (A549 NSCLC) [µM]	TGI (A549 NSCLC) [µM]	GI50 (CAKI-1 renal) [µM]	TGI (CAKI-1 renal) [µM]	GI50 (HCT-15 colon) [µM]	TGI (HCT-15 colon) [µM]	GI50 (HOP-92 NSCLC) [µM]	TGI (HOP-92 NSCLC) [µM]	GI50 (KM12 colon) [µM]	TGI (KM12 colon) [µM]	GI50 (MALME-3M melanoma) [µM]	TGI (MALME-3M melanoma) [µM]	GI50 (OVCAR-5 ovarian) [µM]	TGI (OVCAR-5 ovarian) [µM]	GI50 (SF-539 CNS) [µM]	TGI (SF-539 CNS) [µM]	GI50 (SK-MEL-2 melanoma) [µM]	TGI (SK-MEL-2 melanoma) [µM]
CN(C)CCOc1ccc2c(c1)C(=O)/C(=C\c1ncc([N+](=O)[O-])n1C)C2	0.307	0.931	0.37	5.14	0.386	2.4	0.311	7.39	0.701	3.25	1.19	3.21	0.371	1.69	2.02	5.7	1.4	3.35	0.631	1.93
CCCC(=O)OC(OC(=O)CCC)c1ccc([N+](=O)[O-])o1	–	> 100	–	> 100	–	38.4	–	43.4	–	56.3	–	> 100	–	40.3	–	39.6	–	> 100	–	86.2
CN1C/C(=C\c2ccc(C(=O)O)cc2)C(=O)/C(=C/c2ccc(C(=O)O)cc2)C1	–	> 100	–	> 100	–	> 100	–	> 100	–	> 100	–	> 100	–	> 100	–	> 100	–	> 100	–	> 100
CCN1CCC(O)(/C=C/c2ccccc2)C(C(=O)/C=C/c2ccccc2)C1 (stereo not given)	–	18.4	–	16.8	–	6.44	–	3.84	–	8.76	–	3.44	–	5.09	–	8.38	–	3.76	–	7.25
CNC(=O)c1cc(-c2ccc(F)cc2)cc(-c2ccc(S(=O)(=O)N3CCCC3)cc2)c1N	5.25	> 25	11.9	> 25	12.6	> 25	9.68	> 25	4.9	> 25	16.6	> 25	> 25	> 25	> 25	> 25	> 25	> 25	> 25	> 25
N#CC(C#N)C(c1ccccc1)c1ccccc1	–	> 100	–	> 100	–	> 100	–	> 100	–	> 100	–	> 100	–	> 100	–	> 100	–	> 100	–	> 100
CCOC(=O)C(=O)Nc1nc2ccc(C)cc2s1	–	> 100	–	> 100	–	> 100	–	> 100	–	> 100	–	> 100	–	> 100	–	> 100	–	> 100	–	> 100
COc1ccc(/C=C2/CSC/C(=C/c3ccc(OC)c(OC)c3)C2=O)cc1OC	–	15.3	–	8.39	–	12.8	–	3.46	–	43.7	–	3.26	–	12.2	–	12.7	–	10.6	–	7.61
COc1cc([C@@H]2c3cc4c(cc3[C@@H](NCc3cccc(F)c3)C3COC(=O)[C@@H]32)OCO4)cc(OC)c1O (stereo not given in full)	–	13.1	–	10.9	–	51.4	–	20.5	–	> 65	–	17.4	–	21.5	–	51.3	–	10.8	–	29.5
